pEC50: −log10 of the molar value.
Target: T1, α4β7 integrin interaction with MadCAM-1 (RPMI8866 cells) (Homo sapiens, UniProt P13612+P26010)
T1 construct: α4β7 integrin expressing cells; endogenous in cells; host or cells: RPMI8866 cells
T1 sequence (P13612 34-1032): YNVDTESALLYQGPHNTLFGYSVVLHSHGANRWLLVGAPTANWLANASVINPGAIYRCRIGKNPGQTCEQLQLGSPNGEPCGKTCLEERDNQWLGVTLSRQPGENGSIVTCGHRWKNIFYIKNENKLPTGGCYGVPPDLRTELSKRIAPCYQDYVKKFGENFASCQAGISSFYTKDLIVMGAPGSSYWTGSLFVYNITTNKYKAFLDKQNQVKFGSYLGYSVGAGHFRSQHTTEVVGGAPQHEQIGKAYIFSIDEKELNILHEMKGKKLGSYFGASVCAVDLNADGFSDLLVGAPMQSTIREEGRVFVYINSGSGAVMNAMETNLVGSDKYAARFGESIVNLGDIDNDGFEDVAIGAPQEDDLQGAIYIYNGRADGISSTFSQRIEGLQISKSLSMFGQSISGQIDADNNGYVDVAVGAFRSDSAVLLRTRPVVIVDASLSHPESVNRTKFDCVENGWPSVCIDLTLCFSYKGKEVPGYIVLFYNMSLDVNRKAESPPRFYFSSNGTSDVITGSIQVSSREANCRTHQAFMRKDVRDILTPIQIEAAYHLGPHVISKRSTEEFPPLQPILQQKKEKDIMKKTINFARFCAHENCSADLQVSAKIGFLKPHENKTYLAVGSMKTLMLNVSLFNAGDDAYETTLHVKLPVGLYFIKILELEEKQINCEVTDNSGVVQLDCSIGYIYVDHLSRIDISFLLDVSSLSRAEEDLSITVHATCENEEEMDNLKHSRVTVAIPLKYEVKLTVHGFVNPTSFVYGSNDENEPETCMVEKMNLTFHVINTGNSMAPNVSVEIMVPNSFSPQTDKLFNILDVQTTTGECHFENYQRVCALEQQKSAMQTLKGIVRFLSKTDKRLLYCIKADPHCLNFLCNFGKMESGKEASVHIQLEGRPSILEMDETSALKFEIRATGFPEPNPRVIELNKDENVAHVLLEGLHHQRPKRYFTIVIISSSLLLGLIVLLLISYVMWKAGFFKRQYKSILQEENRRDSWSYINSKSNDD
T1 sequence (P26010 20-798): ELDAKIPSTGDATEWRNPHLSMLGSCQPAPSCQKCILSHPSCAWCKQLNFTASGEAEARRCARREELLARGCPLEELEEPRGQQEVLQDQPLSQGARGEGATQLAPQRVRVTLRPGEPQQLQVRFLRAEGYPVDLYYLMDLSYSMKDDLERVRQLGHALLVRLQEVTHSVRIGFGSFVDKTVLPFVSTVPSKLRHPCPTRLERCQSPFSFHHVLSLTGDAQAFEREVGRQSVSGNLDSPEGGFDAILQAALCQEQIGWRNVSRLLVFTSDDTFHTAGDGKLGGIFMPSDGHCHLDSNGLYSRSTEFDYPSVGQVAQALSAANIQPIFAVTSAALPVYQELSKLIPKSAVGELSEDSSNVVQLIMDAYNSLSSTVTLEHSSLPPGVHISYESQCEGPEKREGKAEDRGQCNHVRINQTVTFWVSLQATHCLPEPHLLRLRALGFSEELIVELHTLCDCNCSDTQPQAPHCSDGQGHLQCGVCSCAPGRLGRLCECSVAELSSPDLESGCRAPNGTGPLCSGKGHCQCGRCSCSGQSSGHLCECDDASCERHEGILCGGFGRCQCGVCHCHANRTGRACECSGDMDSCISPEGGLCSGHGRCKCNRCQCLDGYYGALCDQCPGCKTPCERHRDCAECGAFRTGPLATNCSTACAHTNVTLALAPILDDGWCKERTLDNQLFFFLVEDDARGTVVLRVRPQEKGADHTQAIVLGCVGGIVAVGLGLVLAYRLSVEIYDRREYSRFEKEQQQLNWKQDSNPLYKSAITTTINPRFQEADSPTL
Assay: α4β7 Integrin Cell Capture Assay
Assay type: cell-based
Conditions: capture of α4β7 integrin expressing RPMI8866 cells on recombinant MadCAM-1 extracellular domain-coated plate; 0.5 mM MnCl2
Outline: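 RPMI8866 cells (0.5×10^6 cells/mL in DMEM + 0.5% FBS + 0.5 mM MnCl2) preincubated with compound 1 h at 37 °C, then allowed to adhere 30 min at 37 °C to plates coated with MAdCAM-1 extracellular domain (1.0 μg/mL). Bound cells fixed with 2% glutaraldehyde, Hoechst-stained, imaged and counted; EC50 from cell count versus concentration.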

| pEC50 | Compound |
| --- | --- |
| 8.04 | CCOCc1cc(OC)c(-c2ccc(C[C@H](NC(=O)c3c(F)cccc3F)C(=O)O)c3c2OCCC3)c(OC)c1 [Example 71, (S)-2-(2,6-difluorobenzamido)-3-(8-(4-(ethoxymethyl)-2,6-dimethoxyphenyl)chroman-5-yl)propanoic acid] |
| 7.27 | N#Cc1ccc(-c2ccc(C[C@H](NC(=O)c3c(F)cccc3F)C(=O)O)c3c2OCCC3)c(Cl)c1 [Example 72, (S)-3-(8-(2-chloro-4-cyanophenyl)chroman-5-yl)-2-(2,6-difluorobenzamido)propanoic acid] |
| 7.76 | Cn1cc(-c2ccc(C[C@H](NC(=O)c3c(F)cccc3F)C(=O)O)c3c2OCCC3)c(=O)n(C)c1=O [Example 73, (S)-2-(2,6-difluorobenzamido)-3-(8-(1,3-dimethyl-2,4-dioxo-1,2,3,4-tetrahydropyrimidin-5-yl)chroman-5-yl)propanoic acid] |
| 7.10 | O=C(N[C@@H](Cc1ccc(-c2c(Cl)cc(F)cc2Cl)c2c1CCCO2)C(=O)O)c1c(F)cccc1F [Example 74, (S)-3-(8-(2,6-dichloro-4-fluorophenyl)chroman-5-yl)-2-(2,6-difluorobenzamido)propanoic acid] |
| 7.17 | O=C(N[C@@H](Cc1ccc(-c2c(Cl)cc(F)cc2Cl)c2c1CCCO2)C(=O)O)c1c(Cl)cccc1Cl [Example 75, (S)-3-(8-(2,6-dichloro-4-fluorophenyl)chroman-5-yl)-2-(2,6-dichlorobenzamido)propanoic acid] |
| 7.15 | O=C(N[C@@H](Cc1ccc(-c2c(Cl)cc(F)cc2Cl)c2c1C1CC1CO2)C(=O)O)c1c(F)cccc1F (stereo partly drawn) [Example 77, (2S)-3-(4-(2,6-dichloro-4-fluorophenyl)-1,1a,2,7b-tetrahydrocyclopropa [c]chromen-7-yl)-2-(2,6-difluorobenzamido)propanoic acid] |
| 7.17 | O=C(N[C@@H](Cc1ccc(-c2c(Cl)cc(F)cc2Cl)c2c1C1CC1CO2)C(=O)O)c1c(Cl)cccc1Cl (stereo partly drawn) [Example 80, (2S)-3-(4-(2,6-dichloro-4-fluorophenyl)-1,1a,2,7b-tetrahydrocyclopropa[c]chromen-7-yl)-2-(2,6-dichlorobenzamido)propanoic acid] |
| 7.45 | O=C(N[C@@H](Cc1ccc(-c2c(Cl)cc(F)cc2Cl)c2c1CCCO2)C(=O)O)c1c(F)cc(N2CCOC[C@@H]2C(F)(F)F)cc1F [Example 83, (S)-3-(8-(2,6-dichloro-4-fluorophenyl)chroman-5-yl)-2-(2,6-difluoro-4-((R)-3-(trifluoromethyl)morpholino)benzamido)propanoic acid] |
| 7.19 | O=C(N[C@@H](Cc1ccc(-c2c(Cl)cc(F)cc2Cl)c2c1CCCO2)C(=O)O)c1c(F)cc(N[C@H](c2ccccc2)C(F)(F)F)cc1F [Example 84, (S)-3-(8-(2,6-dichloro-4-fluorophenyl)chroman-5-yl)-2-(2,6-difluoro-4-(((R)-2,2,2-trifluoro-1-phenylethyl)amino)benzamido)propanoic acid] |
| 9.28 | Cn1cc(-c2ccc(C[C@H](NC(=O)c3c(F)cc(N[C@H](c4ccccc4)C(F)(F)F)cc3F)C(=O)O)c3c2OCCC3)c(=O)n(C)c1=O [Example 85, (S)-2-(2,6-difluoro-4-(((R)-2,2,2-trifluoro-1-phenylethyl)amino)benzamido)-3-(8-(1,3-dimethyl-2,4-dioxo-1,2,3,4-tetrahydropyrimidin-5-yl)chroman-5-yl) propanoic acid] |
| 8.48 | O=C(N[C@@H](Cc1ccc(-c2ncccc2C(F)(F)F)c2c1CCCO2)C(=O)O)c1c(F)cc(N[C@H](c2ccccc2)C(F)(F)F)cc1F [Example 86, (S)-2-(2,6-difluoro-4-(((R)-2,2,2-trifluoro-1-phenylethyl)amino)benzamido)-3-(8-(3-(trifluoromethyl)pyridin-2-yl)chroman-5-yl)propanoic acid] |
| 7.89 | N#Cc1cc(Cl)c(-c2ccc(C[C@H](NC(=O)c3c(F)cc(N[C@H](c4ccccc4)C(F)(F)F)cc3F)C(=O)O)c3c2OCCC3)c(Cl)c1 [Example 87, (S)-3-(8-(2,6-dichloro-4-cyanophenyl)chroman-5-yl)-2-(2,6-difluoro-4-(((R)-2,2,2-trifluoro-1-phenylethyl)amino)benzamido)propanoic acid] |
| 8.62 | C[C@@H](Nc1cc(F)c(C(=O)N[C@@H](Cc2ccc(-c3cn(C)c(=O)n(C)c3=O)c3c2CCCO3)C(=O)O)c(F)c1)C(F)(F)F [Example 88, (S)-2-(2,6-difluoro-4-(((R)-1,1,1-trifluoropropan-2-yl)amino)benzamido)-3-(8-(1,3-dimethyl-2,4-dioxo-1,2,3,4-tetrahydropyrimidin-5-yl)chroman-5-yl)propanoic acid] |
| 8.07 | C[C@@H](Nc1cc(F)c(C(=O)N[C@@H](Cc2ccc(-c3ncccc3C(F)(F)F)c3c2CCCO3)C(=O)O)c(F)c1)C(F)(F)F [Example 89, (S)-2-(2,6-difluoro-4-(((R)-1,1,1-trifluoropropan-2-yl)amino)benzamido)-3-(8-(3-(trifluoromethyl)pyridin-2-yl)chroman-5-yl)propanoic acid] |
| 7.79 | O=C(N[C@@H](Cc1ccc(-c2cc(F)c(F)c3c2OCCC3)c2c1CCCO2)C(=O)O)c1c(Cl)cccc1Cl [Example 90, (S)-2-(2,6-dichlorobenzamido)-3-(5′,6′-difluoro-[8,8′-bichroman]-5-yl)propanoic acid] |
| 7.96 | C[C@@H](Nc1cc(F)c(C(=O)N[C@@H](Cc2ccc(-c3c(Cl)cc(C#N)cc3Cl)c3c2CCCO3)C(=O)O)c(F)c1)C(F)(F)F [Example 91, (S)-3-(8-(2,6-dichloro-4-cyanophenyl)chroman-5-yl)-2-(2,6-difluoro-4-(((R)-1,1,1-trifluoropropan-2-yl)amino)benzamido)propanoic acid] |
| 8.04 | CS(=O)(=O)Nc1cc(F)c(C(=O)N[C@@H](Cc2ccc(-c3c(Cl)cc(F)cc3Cl)c3c2CCCO3)C(=O)O)c(F)c1 [Example 92, (S)-3-(8-(2,6-dichloro-4-fluorophenyl)chroman-5-yl)-2-(2,6-difluoro-4-(methylsulfonamido)benzamido)propanoic acid] |
| 6.31 | COc1cc(C#Cc2ccc(OC(F)(F)F)cc2)cc(OC)c1-c1ccc(C[C@H](NC(=O)c2c(Cl)cccc2Cl)C(=O)O)c2c1OCCC2 [Example 93, (S)-2-(2,6-dichlorobenzamido)-3-(8-(2,6-dimethoxy-4-((4-(trifluoromethoxy)phenyl)ethynyl)phenyl)chroman-5-yl)propanoic acid] |
| 6.20 | CC1(C)CCc2c(C[C@H](NC(=O)c3c(Cl)cccc3Cl)C(=O)O)ccc(-c3c(Cl)cc(F)cc3Cl)c2O1 [Example 95, (S)-3-(8-(2,6-dichloro-4-fluorophenyl)-2,2-dimethylchroman-5-yl)-2-(2,6-dichlorobenzamido)propanoic acid] |
| 7.37 | O=C(N[C@@H](Cc1ccc(-c2c(Cl)cc(F)cc2Cl)c2c1OCCCO2)C(=O)O)c1c(F)cccc1F [Example 96, (S)-3-(9-(2,6-dichloro-4-fluorophenyl)-3,4-dihydro-2H-benzo[b][1,4]dioxepin-6-yl)-2-(2,6-difluorobenzamido)propanoic acid] |
